biological target: B-Raf (V600E)-kinase (Homo sapiens (Human), UniProt P15056, V600E); assay: Kinase test B-RAF (V600E); format: biochemical; details: B-RAF (V600E) kinase test, 250 μM ATP
Protocol: Kinase Test B-RAF (V600E)
In a dilution series 10 μL of test substance solution are placed in a multiwell plate. The dilution series is selected so that generally a range of concentrations of 2 μM to 0.119 nM or 0.017 nM is covered. If necessary the initial concentration of 2 μM is changed to 50 μM, 10 μM or 0.4 μM or 0.2857 μM and further dilution is carried out accordingly. The final concentration of DMSO is 5%. 10 μL of the B-Raf (V600E)-kinase solution are pipetted in (containing 0.5 ng B-Raf (V600E)-kinase in 20 mM Tris-HCl pH 7.5, 0.1 mM EDTA, 0.1 mM EGTA, 0.286 mM sodium orthovanadate, 10% glycerol, 1 mg/mL bovine serum albumin, 1 mM dithiothreitol) and the mixture is incubated for 24 h at RT under with shaking. The kinase reaction is started by the addition of 20 μL ATP solution [final concentration: 250 μM ATP, 30 mM Tris-HCl pH 7.5, 0.02% Brij, 0.2 mM sodium orthovanadate, 10 mM magnesium acetate, 0.1 mM EGTA, phosphatase cocktail (Sigma, # P2850, dilution recommended by the manufacturer), 0.1 mM EGTA] and 10 μL MEK1 solution [containing 50 ng biotinylated MEK1 (prepared from purified MEK1 according to standard procedure, e.g. with EZ-Link Sulpho-NHS-LC-Biotin reagent, Pierce, #21335) and carried out for 60 min at RT with constant shaking. The reaction is stopped by the addition of 12 μL of a 100 mM EDTA solution and incubation is continued for a further 5 min. 55 μL of the reaction solution are transferred into a streptavidin-coated plate (e.g. Streptawell HighBond, Roche, #11989685001) and shaken gently for 1 h at RT, in order to bind biotinylated MEK1 to the plate. After elimination of the liquid the plate is washed five times with 200 μL of 1×PBS and 100 μL solution of primary antibody plus europium-labelled secondary antibody [Anti Phospho-MEK (Ser217/221), Cell Signaling, #9121 and Eu-N1 labeled goat-anti-rabbit antibody, Perkin Elmer, # AD0105], the primary antibody is diluted 1:2000 and the secondary antibody is diluted to 0.4-0.5 μg/mL in Delfia Assay Buffer (Perkin Elmer, #1244-111). After 1 h shaking at RT the solution is poured away and washed five times with 200 μL Delfia Wash Buffer (Perkin Elmer, #4010-0010/#1244-114). After the addition of 200 μL Enhancement Solution (Perkin Elmer, #4001-0010/#1244-105) the mixture is shaken for 10 min at RT and then measured in a Wallac Victor using the program “Delfia Time Resolved Fluorescence (Europium)”. IC50 values are obtained from these dosage-activity curves using a software program (GraphPadPrizm).

B-Raf (V600E)-kinase, sequence (P15056 whole entry V600E): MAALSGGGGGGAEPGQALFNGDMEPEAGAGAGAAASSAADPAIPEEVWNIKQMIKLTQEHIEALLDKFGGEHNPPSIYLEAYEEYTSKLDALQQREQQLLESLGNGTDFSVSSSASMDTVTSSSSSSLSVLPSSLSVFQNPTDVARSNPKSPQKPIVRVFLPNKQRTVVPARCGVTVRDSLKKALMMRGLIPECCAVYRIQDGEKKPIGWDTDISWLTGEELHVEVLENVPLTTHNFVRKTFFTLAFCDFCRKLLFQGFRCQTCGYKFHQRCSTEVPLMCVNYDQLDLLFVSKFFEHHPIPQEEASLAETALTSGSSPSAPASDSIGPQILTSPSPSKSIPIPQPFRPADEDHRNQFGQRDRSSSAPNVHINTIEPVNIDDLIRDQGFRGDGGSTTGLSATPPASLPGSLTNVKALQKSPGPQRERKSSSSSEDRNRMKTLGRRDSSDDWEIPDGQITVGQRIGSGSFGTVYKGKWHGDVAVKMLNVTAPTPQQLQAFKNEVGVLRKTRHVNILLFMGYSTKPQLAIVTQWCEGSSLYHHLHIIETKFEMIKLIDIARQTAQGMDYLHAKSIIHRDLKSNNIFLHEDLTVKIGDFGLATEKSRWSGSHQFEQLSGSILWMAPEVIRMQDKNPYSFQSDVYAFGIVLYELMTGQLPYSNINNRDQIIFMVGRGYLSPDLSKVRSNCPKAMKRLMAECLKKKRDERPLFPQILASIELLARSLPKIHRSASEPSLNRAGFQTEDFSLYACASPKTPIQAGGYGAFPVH

**Q.** For `Cc1ccc(C(=O)Nc2cccc(C(F)(F)F)c2)cc1Nc1ncnc2c(N)nc(N3CCCN(c4ccccn4)CC3)nc12` [I-67], which IC50 is on record?
**A.** 3 nM

**Q.** With `Cc1ccc(C(=O)Nc2cccc(C(F)(F)F)c2)cc1Nc1ncnc2c(N)nc(N3CCCN(C)CC3)nc12` [I-68] as the compound, how does the IC50 read?
**A.** < 1 nM

**Q.** `Cc1ccc(C(=O)Nc2cc(C(C)(C)C)n[nH]2)cc1Nc1ncnc2c(N)nc(N3C[C@@H]4C[C@H]3CN4)nc12` [I-69] was tested. Which IC50 did it give?
**A.** 2 nM

**Q.** `Cc1ccc(C(=O)Nc2cc(N(C)CCN(C)C)cc(C(F)(F)F)c2)cc1Nc1ncnc2c(N)nc(N3CCCOCC3)nc12` [I-70] was tested. Which IC50 did it give?
**A.** 3 nM

**Q.** Which IC50 does the source give for `Cc1ccc(C(=O)Nc2ccc(C#N)c(C(F)(F)F)c2)cc1Nc1ncnc2c(N)nc(N3CCN(C)CC3)nc12` [I-71] here?
**A.** 7 nM

**Q.** `Cc1ccc(C(=O)Nc2cc(C(C)(C)C)nn2C)cc1Nc1ncnc2c(N)nc(N3CCN(C)CC3)nc12` [I-72] was tested. Which IC50 did it give?
**A.** 12 nM

**Q.** How did the IC50 turn out when `Cc1ccc(C(=O)Nc2cc(C(F)(F)F)ccn2)cc1Nc1ncnc2c(N)nc(N3CCN(C)CC3)nc12` [I-73] was run?
**A.** 2 nM

**Q.** `Cc1ccc(C(=O)Nc2ccc(Cl)c(C(F)(F)F)c2)cc1Nc1ncnc2c(N)nc(N3CCN(C)CC3)nc12` [I-74] was tested. Which IC50 did it give?
**A.** 3 nM

**Q.** Which IC50 does the source give for `Cc1cn(-c2cc(NC(=O)c3ccc(C)c(Nc4ncnc5c(N)nc(N6CCN(C)CC6)nc45)c3)cc(C(F)(F)F)c2)cn1` [I-75] here?
**A.** 54 nM

**Q.** How did the IC50 turn out when `Cc1ccc(C(=O)Nc2cc(N(C)CCN(C)C)cc(C(F)(F)F)c2)cc1Nc1ncnc2c(N)nc(N3CCOCC3)nc12` [I-76] was run?
**A.** 1 nM

**Q.** `CCN1CCN(c2cc(NC(=O)c3ccc(C)c(Nc4ncnc5c(N)nc(N6CCOCC6)nc45)c3)cc(C(F)(F)F)c2)CC1` [I-77] was tested. Which IC50 did it give?
**A.** 2 nM

**Q.** How did the IC50 turn out when `Cc1ccc(C(=O)Nc2cc(N(C)CCN(C)C)cc(C(F)(F)F)c2)cc1Nc1ncnc2c(N)nc(N(C)C)nc12` [I-78] was run?
**A.** 8 nM

**Q.** Which IC50 does the source give for `CCN1CCN(c2cc(NC(=O)c3ccc(C)c(Nc4ncnc5c(N)nc(N(C)C)nc45)c3)cc(C(F)(F)F)c2)CC1` [I-79] here?
**A.** 19 nM

**Q.** Which IC50 does the source give for `Cc1ccc(C(=O)Nc2cccc(C(C)(C)C)c2)cc1Nc1ncnc2c(N)nc(N3CCN(C)CC3)nc12` [I-80] here?
**A.** 2 nM

**Q.** How did the IC50 turn out when `CCN1CCN(c2cc(NC(=O)c3ccc(C)c(Nc4ncnc5c(N)nc(N6CCCOCC6)nc45)c3)cc(C(F)(F)F)c2)CC1` [I-81] was run?
**A.** 3 nM

**Q.** Which IC50 does the source give for `CN1CCN(c2nc(N)c3ncnc(Nc4ccc(F)c(C(=O)Nc5cc(C(C)(C)C)n[nH]5)c4)c3n2)CC1` [I-82] here?
**A.** 676 nM

**Q.** Which IC50 does the source give for `CC(C)CN1CCN(c2nc(N)c3ncnc(Nc4ccc(F)c(C(=O)Nc5cc(C(C)(C)C)n[nH]5)c4)c3n2)CC1` [I-83] here?
**A.** 2200 nM

**Q.** `Cc1ccc(C(=O)Nc2cc(C(C)(C)C)nn2C)cc1Nc1ncnc2c(N)nc(N3CCN(CC(C)C)CC3)nc12` [I-84] was tested. Which IC50 did it give?
**A.** 11 nM

**Q.** `Cc1ccc(C(=O)Nc2cc(C(C)(C)C)nn2C)cc1Nc1ncnc2c(N)nc(N3CCN4CCCC4C3)nc12` (stereo not shown) [I-85] was tested. Which IC50 did it give?
**A.** 7 nM

**Q.** For `Cc1ccc(C(=O)Nc2cc(N(C)CCN(C)C)cc(C(F)(F)F)c2)cc1Nc1ncnc2c(N)nc(N3CC[C@H](F)C3)nc12` [I-86], which IC50 is on record?
**A.** 4 nM

**Q.** Which IC50 does the source give for `CCN1CCN(c2cc(NC(=O)c3ccc(C)c(Nc4ncnc5c(N)nc(N6CCCC6)nc45)c3)cc(C(F)(F)F)c2)CC1` [I-87] here?
**A.** 9 nM

**Q.** With `CCN1CCN(c2cc(NC(=O)c3ccc(C)c(Nc4ncnc5c(N)nc(N6CC[C@H](F)C6)nc45)c3)cc(C(F)(F)F)c2)CC1` [I-88] as the compound, how does the IC50 read?
**A.** 10 nM

**Q.** How did the IC50 turn out when `Cc1ccc(NC(=O)c2cccc(C(F)(F)F)c2)cc1Nc1ncnc2c(N)nc(N3CCN(C)CC3)nc12` [II-1] was run?
**A.** 26 nM

**Q.** How did the IC50 turn out when `Cc1ccc(NC(=O)c2cccc(C(F)(F)F)c2)cc1Nc1ncnc2c(N)nc(N3CCCN(C)CC3)nc12` [II-2] was run?
**A.** 41 nM

**Q.** `Cc1ccc(NC(=O)c2cccc(C(F)(F)F)c2)cc1Nc1ncnc2c(N)nc(NN3CCN(C)CC3)nc12` [II-3] was tested. Which IC50 did it give?
**A.** 50 nM

**Q.** With `Cc1ccc(NC(=O)c2cccc(C(F)(F)F)c2)cc1Nc1ncnc2c(N)nc(NCc3ccncc3)nc12` [II-4] as the compound, how does the IC50 read?
**A.** 81 nM

**Q.** How did the IC50 turn out when `Cc1ccc(NC(=O)c2cccc(C(F)(F)F)c2)cc1Nc1ncnc2c(N)nc(NCc3cccnc3)nc12` [II-5] was run?
**A.** 50 nM

**Q.** How did the IC50 turn out when `Cc1ccc(NC(=O)c2cccc(C(F)(F)F)c2)cc1Nc1ncnc2c(N)nc(NCc3ccccn3)nc12` [II-6] was run?
**A.** 96 nM

**Q.** `Cc1ccc(NC(=O)c2cccc(C(F)(F)F)c2)cc1Nc1ncnc2c(N)nc(N(C)C)nc12` [II-7] was tested. Which IC50 did it give?
**A.** 15 nM

**Q.** Which IC50 does the source give for `Cc1ccc(NC(=O)c2cccc(C(F)(F)F)c2)cc1Nc1ncnc2c(N)nc(N3CCN(C4CCN(C)CC4)CC3)nc12` [II-8] here?
**A.** 2 nM

**Q.** How did the IC50 turn out when `Cc1ccc(NC(=O)c2cccc(C(F)(F)F)c2)cc1Nc1ncnc2c(N)nc(N3CCN(C4CCCC4)CC3)nc12` [II-9] was run?
**A.** 24 nM

**Q.** How did the IC50 turn out when `Cc1ccc(NC(=O)c2cccc(C(F)(F)F)c2)cc1Nc1ncnc2c(N)nc(N3CCCN(C4CC4)CC3)nc12` [II-10] was run?
**A.** 25 nM

**Q.** `Cc1ccc(NC(=O)c2cccc(C(F)(F)F)c2)cc1Nc1ncnc2c(N)nc(N3CCCNCC3)nc12` [II-11] was tested. Which IC50 did it give?
**A.** 20 nM

**Q.** For `Cc1ccc(NC(=O)c2cccc(C(F)(F)F)c2)cc1Nc1ncnc2c(N)nc(N3CCCN(c4ccncc4)CC3)nc12` [II-12], which IC50 is on record?
**A.** 7 nM

**Q.** How did the IC50 turn out when `Cc1ccc(NC(=O)c2cccc(C(F)(F)F)c2)cc1Nc1ncnc2c(N)nc(N3C[C@H](C)NC[C@H]3C)nc12` [II-13] was run?
**A.** 7 nM

**Q.** With `Cc1ccc(NC(=O)c2cccc(C(F)(F)F)c2)cc1Nc1ncnc2c(N)nc(N3CCN(CC4CCN(C)CC4)CC3)nc12` [II-14] as the compound, how does the IC50 read?
**A.** 4 nM

**Q.** How did the IC50 turn out when `Cc1ccc(NC(=O)c2cccc(C(F)(F)F)c2)cc1Nc1ncnc2c(N)nc(N3CC(C)NC(C)C3)nc12` (stereo not shown) [II-15] was run?
**A.** 40 nM

**Q.** `Cc1ccc(NC(=O)c2cccc(C(F)(F)F)c2)cc1Nc1ncnc2c(N)nc(N3CCCN(c4ncccn4)CC3)nc12` [II-16] was tested. Which IC50 did it give?
**A.** 45 nM

**Q.** `Cc1ccc(NC(=O)c2cccc(C(F)(F)F)c2)cc1Nc1ncnc2c(N)nc(N3CCN(C(C)C)CC3)nc12` [II-17] was tested. Which IC50 did it give?
**A.** 13 nM

**Q.** `Cc1ccc(NC(=O)c2cccc(C(F)(F)F)c2)cc1Nc1ncnc2c(N)nc(N3CC4CC3CN4C)nc12` (stereo not shown) [II-18] was tested. Which IC50 did it give?
**A.** 9 nM

**Q.** How did the IC50 turn out when `Cc1ccc(NC(=O)c2cccc(C(F)(F)F)c2)cc1Nc1ncnc2c(N)nc(N3CCNCC3)nc12` [II-19] was run?
**A.** 9 nM

**Q.** `COc1ccc(NC(=O)c2ccc(C)c(Nc3ncnc4cnc(N5CCN(C)CC5)nc34)c2)cc1C(F)(F)F` [III-1] was tested. Which IC50 did it give?
**A.** 2 nM

**Q.** Which IC50 does the source give for `COc1ccc(NC(=O)c2ccc(C)c(Nc3ncnc4cnc(N5CCOCC5)nc34)c2)cc1C(F)(F)F` [III-2] here?
**A.** < 1 nM

**Q.** `Cc1ccc(C(=O)NCc2cccc(C(C)(C)C)c2)cc1Nc1ncnc2cnc(N(C)CCN(C)C)nc12` [III-3] was tested. Which IC50 did it give?
**A.** 118 nM

**Q.** `COCCN(C)c1ncc2ncnc(Nc3cc(C(=O)Nc4ccc(OC)c(C(F)(F)F)c4)ccc3Cl)c2n1` [III-4] was tested. Which IC50 did it give?
**A.** 2 nM

**Q.** With `COc1ccc(NC(=O)c2ccc(Cl)c(Nc3ncnc4cnc(N(C)CCN(C)C)nc34)c2)cc1C(F)(F)F` [III-5] as the compound, how does the IC50 read?
**A.** 2 nM

**Q.** `COc1ccc(NC(=O)c2ccc(Cl)c(Nc3ncnc4cnc(N5CCCCCC5)nc34)c2)cc1C(F)(F)F` [III-6] was tested. Which IC50 did it give?
**A.** 7 nM

**Q.** Which IC50 does the source give for `COc1ccc(NC(=O)c2ccc(Cl)c(Nc3ncnc4cnc(N5CCCN(C)CC5)nc34)c2)cc1C(F)(F)F` [III-7] here?
**A.** 1 nM

**Q.** How did the IC50 turn out when `COc1ccc(NC(=O)c2ccc(Cl)c(Nc3ncnc4cnc(N(C)CCN5CCCC5)nc34)c2)cc1C(F)(F)F` [III-8] was run?
**A.** 3 nM

**Q.** For `COc1ccc(NC(=O)c2ccc(Cl)c(Nc3ncnc4cnc(N5CCN(C)CC5)nc34)c2)cc1C(F)(F)F` [III-9], which IC50 is on record?
**A.** 7 nM

**Q.** Which IC50 does the source give for `COc1ccc(NC(=O)c2ccc(Cl)c(Nc3ncnc4cnc(N5CCCCC5)nc34)c2)cc1C(F)(F)F` [III-10] here?
**A.** 6 nM

**Q.** For `COc1ccc(NC(=O)c2ccc(Cl)c(Nc3ncnc4cnc(NCCCN5CCOCC5)nc34)c2)cc1C(F)(F)F` [III-11], which IC50 is on record?
**A.** 4 nM

— patent publication US8653087B2, “Pyrido [5, 4-D] pyrimidines as cell proliferation inhibitors” (Boehringer Ingelheim International GmbH, priority 2008, dated 2014)
